In patent US20110183904A1, “METHODS AND COMPOSITIONS FOR ALTERING BEHAVIOR ASSOCIATED WITH AUTISM SPECTRUM DISORDER” (The Children's Mercy Hospital, priority 2008, published 2011):
Where “and” joins values, the source holds several entries; their conditions need not be identical. Identical values can stand only once. Entries after “also recorded” stand apart in the source; their conditions may differ.

Key:
Gαs mRNA in PBMCs = Gαs mRNA in PBMCs exposed to vasopressin (real-time RT-PCR); assay type: cell-based, human
Procedure: (§1) Samples were taken from the patients, as described in Example 1, and mRNA was isolated from cells exposed to vasopressin and analyzed for amount of mRNA expressing Gαs and Gαq.
(§2) Venipuncture. 3 ml/kg of blood (to a maximum of 40 cc) were drawn after a 2 hour fast between 10 am and 12 am as previously described (Modahl). EMLA (topical lidocaine cream) was placed on the antecubital region of both arms and covered with tegaderm prior to blood draw. 10 ml of blood was collected in heparinized tubes on ice until processing within 15 minutes. This aliquot was centrifuged at 4° C. at 3000 g for 20 minutes, after which the plasma was stored in 1 ml aliquots at −80° C. until further processing, at which time it was transported on dry ice to the laboratory. The remaining blood (up to 30 cc) was placed on ice and transported within 30 minutes of blood draw to the same lab. PBMC isolation, hormone treatment and cell culture. PBMCs were isolated from heparinized blood using Histopaque 1077 (Sigma-Aldrich, St. Louis, Mo.). Briefly, 5 ml of blood was diluted 1:1 in PBS and carefully layered onto 3 ml of Histopaque 1077 in a 50 ml conical centrifuge tube. Tubes were centrifuged at 400 g for 30 min at RT. The buffy coat was removed from the tube and washed three times in complete RPMI without phenol red. Cell counts and viability were determined using Trypan blue. Cell viability was >95%. Resultant PBMC's were suspended in complete RPMI with 10% charcoal stripped, dilapidated fetal calf serum (FCS) (Invitrogen, Carlsbad, Calif.) and added in 1 ml aliquots to 12 well plate with vehicle and vasopressin (10−8M) in RPMI+10% charcoal stripped, dilapidated FCS. Cells were incubated overnight (18-24 hr) before wells were harvested and rinsed. Cell suspensions were centrifuged at 500 g for 10 min at RT, and supernatant was aspirated. Buffer RLT Plus from the RNeasy Mini Plus Kit (QIAgen, Valencia, Calif.) was added to the cell pellets before vortexing to lyse cells. Samples were stored at −80° C. before RNA purification and isolation.
(§3) RNA isolation and quantitation. Samples were thawed, vortexed, and placed in QIAshredder columns. Columns were centrifuged for 2 min at 15000 g. The homogenized lysate was transferred to a gDNA Eliminator spin column and centrifuged for 30 sec at 9000 g. Equal volumes of 70% ethanol were added to the eluent. The mixture was transferred to RNeasy spin columns and centrifuged for 15 sec at 9000 g. Columns were washed with Buffer RW1 and the Buffer RPE, centrifuging for 15 sec at 9000 g, each time discarding the eluent. Buffer RPE was again added and columns centrifuged for 2 min at 9000 g to dry the column. Columns were then centrifuged for 1 min at 15000 g. RNA was eluted with the addition of Nuclease-free water and spun for 1 min at 9000 g. RNA was examined by spectrophotometry and quantitated using the Ribogreen assay (Invitrogen, Carlsbad, Calif.). Samples were diluted 1:200. Standards of 0, 20, 100, 500, and 1000 ng/ml were made from E. coli ribosomal RNA in TE buffer. Ribogreen reagent (1:200) was added to samples and standards, and samples were read on a Bio-Tek FLx800 fluorescent plate reader. RNA was diluted in nuclease-free water to a final concentration of 150 ng/ml cDNA.
(§4) cDNA construction and one-step real-time RT-PCR. Reverse transcription was performed using the SuperScript II Reverse Transcription Kit (Invitrogen, Carlsbad, Calif.). […]

Gαq mRNA in PBMCs = Gαq mRNA in PBMCs exposed to vasopressin (real-time RT-PCR); assay type: cell-based, human
Procedure: as §1, §2, §3, §4

Gαs protein in PBMCs = experiment: Gαs protein expression in PBMCs exposed to vasopressin (immunoblot); assay type: cell-based, human
Procedure: (§5) Membrane preparation for membrane-associated proteins. For protein studies, PBMC's were manipulated at 4° C., as previously described in Example 4. PBMC's were individually homogenized (1:30, wt/vol) in ice-cold 0.25 M sucrose and 50 mM Tris-HCL, (pH 7.6) in a Dounce homogenizer, centrifuged twice at 800×g for 5 min before centrifugation of the supernatants at 30,000×g for 60 min. The pellet was resuspended in assay buffer and used directly in the binding assay. Protein concentration was determined by BCA protein assay kit (Pierce, Rockford, Ill.) using bovine serum albumin (BSA) as a standard.
(§6) Immunoblot analysis for membrane-associated proteins. Total membrane proteins were prepared as for receptor assays above. Samples were electrophoresed in 12% Tris-HCl resolving gels and transferred to 0.45 μm nitrocellulose membranes (Bio-Rad, Hercules, Calif.) by electroblotting. […] After three washes in TBST, membranes were incubated for 1 h in TBST and 1% non fat dry milk with horseradish peroxidase conjugated 2° antibodies (Jackson Immunoresearch, West Grove, Pa.). Bands were visualized by exposure of the membranes to autoradiographic film (MidSci, St. Louis, Mo.). The membranes were then stripped with Restore™ Western Blot Stripping Buffer (Pierce, Rockford Ill.) for 30 min at 37° C. and reprobed for actin protein as an internal control. The bands were quantified using a densitometer (GE Healthcare, Piscataway, N.J.).
(§7) Specific G protein antibodies. Specific Gαs and Gαq/11 antibodies made in rabbit without cross reactivity to other G proteins were used at a 1:500 dilution and originated from Santa Cruz Biotechnology (Santa Cruz, Calif.).

Gαq protein in PBMCs = experiment: Gαq protein expression in PBMCs exposed to vasopressin (immunoblot); assay type: cell-based, human; parameters: Gαq protein expression, Control Vasopressin / Gαq protein expression, Average, Control Vasopressin: scale not given here
Procedure: as §5, §6, §7

Gαs in PBMCs = settings: bipolar illness and schizophrenia; cited from earlier work
[1] = PBMCs of individual children with ASD, vasopressin 10−8M, 18-24 hr
[2] = PBMCs of individual control children, vasopressin 10−8M, 18-24 hr
[3] = average of autism group, vasopressin 10−8M
[4] = average of control group, vasopressin 10−8M
[5] = ASD versus without ASD, both exposed to vasopressin
[6] = PBMCs of individual children with ASD, immunoblot densitometry
[7] = PBMCs of individual control children, immunoblot densitometry

SMILES: NC(=O)CC[C@@H]1NC(=O)[C@H](Cc2ccccc2)NC(=O)[C@H](Cc2ccc(O)cc2)NC(=O)[C@@H](N)CSSC[C@@H](C(=O)N2CCC[C@H]2C(=O)N[C@@H](CCCN=C(N)N)C(=O)NCC(N)=O)NC(=O)[C@H](CC(N)=O)NC1=O [Vasopressin, Arginine vasopressin]
- Gαs mRNA (% of control), Autism Vasopressin (Gαs mRNA in PBMCs; [1]): 59.5 % of control and 151.6 % of control and 373.2 % of control and 65.9 % of control and 181.8 % of control and 66.3 % of control and 52.6 % of control and 77 % of control and 62 % of control and 54 % of control and 21.1 % of control and 114.8 % of control and 144.4 % of control and 67.6 % of control and 99.7 % of control and 147.3 % of control and 78.5 % of control and 43.7 % of control and 214.4 % of control
- Gαs mRNA (% of control), Control Vasopressin (Gαs mRNA in PBMCs; [2]): 200 % of control and 245.8 % of control and 137.6 % of control and 66.3 % of control and 42.7 % of control and 58.3 % of control and 120 % of control and 31.9 % of control and 33.1 % of control and 66.1 % of control and 30.8 % of control
- Gαs mRNA (% of control), Average, Autism Vasopressin (Gαs mRNA in PBMCs; [3]): 109.1 % of control
- Gαs mRNA (% of control), Average, Control Vasopressin (Gαs mRNA in PBMCs; [4]): 93.9 % of control
- change of Gαs mRNA on vasopressin exposure (Gαs mRNA in PBMCs; healthy patients): increased
- Gαq mRNA (% of control), Autism Vasopressin (Gαq mRNA in PBMCs; [1]): 7.45 % of control and 48.7 % of control and 96.6 % of control (2×) and 171.8 % of control and 43.6 % of control and 37.48 % of control and 13.87 % of control and 12.07 % of control and 24.1 % of control and 7.99 % of control and 48.3 % of control and 90.1 % of control and 90.18 % of control and 107.8 % of control and 8.62 % of control and 1.94 % of control and 30.78 % of control
- Gαq mRNA (% of control), Control Vasopressin (Gαq mRNA in PBMCs; [2]): 9.17 % of control and 3.36 % of control and 54.5 % of control and 23.7 % of control and 1.04 % of control and 12.94 % of control and 1.11 % of control and 100.5 % of control and 59.8 % of control and 146.7 % of control and 45.1 % of control and 16.42 % of control and 24.87 % of control and 26.4 % of control
- Gαq mRNA (% of control), Average, Autism Vasopressin (Gαq mRNA in PBMCs; [3]): 52.11 % of control
- Gαq mRNA (% of control), Average, Control Vasopressin (Gαq mRNA in PBMCs; [4]): 37.5 % of control
- change of Gαq mRNA on vasopressin exposure (Gαq mRNA in PBMCs; healthy patients): increased
- Gαs protein expression after vasopressin exposure, patients with ASD lower than patients without ASD (Gαs protein in PBMCs; [5]): about 37%
- Gαs protein expression, Autism Vasopressin (Gαs protein in PBMCs; [6]): 0.16 and 0.03 (2×) and 0.04 and 0.01 and 0.14 and 0 and 0.33 (2×) and 0.69 and 0.83 and 0.86 and 0.52 and 0.7
- Gαs protein expression, Control Vasopressin (Gαs protein in PBMCs; [7]): 0.3 and 0.83 and 0.35 and 1.63 and 0.33 and 0.19 and 0.48 and 0.29 and 1.26 and 0.51 and 0.62 and 0.67
- Gαs protein expression, Average, Autism Vasopressin (Gαs protein in PBMCs; average of autism group): .33
- Gαs protein expression, Average, Control Vasopressin (Gαs protein in PBMCs; average of control group): .54
- change of Gαs protein expression on vasopressin exposure (Gαs protein in PBMCs; patients with ASD): down-regulation trend; also recorded: decreased
- change of Gαs protein expression on vasopressin exposure (Gαs protein in PBMCs; patients without ASD): appeared to be higher; also recorded: up-regulating
- Gαq protein expression after vasopressin exposure, patients with ASD less than patients without ASD (Gαq protein in PBMCs; [5]): about 28%
- Gαq protein expression, Autism Vasopressin (Gαq protein in PBMCs; [6]): 4.17 and 12.58 and 0 (5×) and 9.53 and 0.36 and 1.26 and 4.64 and 4.01 and 0.19 and 1.13
- Gαq protein expression, Control Vasopressin (Gαq protein in PBMCs; [7]): 7.84 and 0.25 and 0.6 and 0 and 10.56 and 0.26 and 1.86 and 3.96 and 0.35 and 2.86 and 2.81 and 13.29
- Gαq protein expression, Average, Autism Vasopressin (Gαq protein in PBMCs; average of autism group): 2.71
- Gαq protein expression, Average, Control Vasopressin (Gαq protein in PBMCs; average of control group): 3.72
- change of Gαq protein expression on vasopressin exposure (Gαq protein in PBMCs; patients with ASD): down-regulation trend; also recorded: decreased
- change of Gαq protein expression on vasopressin exposure (Gαq protein in PBMCs; patients without ASD): appeared to be higher; also recorded: up-regulating

SMILES: O=C(CCCN1CCC(O)(c2ccc(Cl)cc2)CC1)c1ccc(F)cc1 [haldol]
- Gαs levels in PBMCs under treatment (Gαs in PBMCs): decrease
